# Test results as given in patent US20250011352A1, “SOLID FORMS” (priority 2023, published 2025).
# Where a name gives a salt, the structure may show the parent alone.
# Experiment: Atropisomer interconversion detected by 19F-NMR in deuterated DMSO
# Format: physicochemical
# Conditions: deuterated DMSO solution, deuterated DMSO at 25° C.; read-out: half-life of conversion from the major to the minor atropisomer for the biaryl rotation (converted)
# Method: Compound 1 has two restricted rotational axes, resulting in 4 atropisomers (see FIG. 1) that may be detected by ^19F-NMR.
# ^19F Nuclear Magnetic Resonance spectra were collected on a Varian 400-MR 400 MHz instrument with 7620AS sample changer. Some of the parameters were adjusted as follows: number of scans: 1; spin: 0 (off); steady state scans: 0 (off). Samples were prepared as a solution of 20 mg in 0.75 mL of dimethyl sulfoxide-d6. The time from solvent addition to end of data acquisition should be ≤5 minutes. Off-line analysis was conducted using MNova software.
row,Structure (SMILES),half-life at 26.7 mg/mL [h]
1,"Cc1cc(CC(=O)O)c(C(C)(C)CC(=O)N(c2nn(CC(F)(F)F)c3c(-c4ccc(C#CC(C)(C)S(C)(=O)=O)nc4[C@H](Cc4cc(F)cc(F)c4)NC(=O)Cn4nc(C(F)(F)F)c5c4C(F)(F)[C@@H]4C[C@H]54)ccc(Cl)c23)S(C)(=O)=O)c(OP(=O)(O)O)c1 [Compound 1, 2-(2-(4-(N-(4-chloro-7-(2-((S)-1-(2-((3bS,4aR)-5,5-difluoro-3-(trifluoromethyl)-3b,4,4a,5-tetrahydro-1H-cyclopropa[3,4]cyclopenta[1,2-c]pyrazol-1-yl)acetamido)-2-(3,5-difluorophenyl)ethyl)-6-(3-methyl-3-(methylsulfonyl)but-1-yn-1-yl)pyridin-3-yl)-1-(2,2,2-trifluoroethyl)-1H-indazol-3-yl)methylsulfonamido)-2-methyl-4-oxobutan-2-yl)-5-methyl-3-(phosphonooxy)phenyl)acetic acid]",~71.6

# Same assay, conditions: deuterated DMSO solution, deuterated DMSO at 25° C.; read-out: half-life of interconversion at the 2nd rotational axis
row,Structure (SMILES),half-life at 26.7 mg/mL [h]
1,"Cc1cc(CC(=O)O)c(C(C)(C)CC(=O)N(c2nn(CC(F)(F)F)c3c(-c4ccc(C#CC(C)(C)S(C)(=O)=O)nc4[C@H](Cc4cc(F)cc(F)c4)NC(=O)Cn4nc(C(F)(F)F)c5c4C(F)(F)[C@@H]4C[C@H]54)ccc(Cl)c23)S(C)(=O)=O)c(OP(=O)(O)O)c1 [Compound 1, 2-(2-(4-(N-(4-chloro-7-(2-((S)-1-(2-((3bS,4aR)-5,5-difluoro-3-(trifluoromethyl)-3b,4,4a,5-tetrahydro-1H-cyclopropa[3,4]cyclopenta[1,2-c]pyrazol-1-yl)acetamido)-2-(3,5-difluorophenyl)ethyl)-6-(3-methyl-3-(methylsulfonyl)but-1-yn-1-yl)pyridin-3-yl)-1-(2,2,2-trifluoroethyl)-1H-indazol-3-yl)methylsulfonamido)-2-methyl-4-oxobutan-2-yl)-5-methyl-3-(phosphonooxy)phenyl)acetic acid]",~0.117

# Experiment: Dynamic Vapor Sorption (DVS) hygroscopicity
# Format: physicochemical
# Conditions: from 0 to 90% RH at 25° C.
# Method: Dynamic Vapor Sorption (DVS) was used to study hygroscopicity on Model Q5000 SA (TA Instruments, New Castle, DE). A sample (1-10 mg) was placed in an aluminum pan and loaded on the sample side of the twin pan balance. The water sorption and desorption were studied as a function of relative humidity (RH) at 25° C. in 10% RH increments from 0% RH to 90% RH and then back to 0%. […] Data analysis was performed using Universal Analysis 2000 Version 4.7A (TA Instruments, New Castle, DE).
row,Structure (SMILES),water uptake (DVS)
1,Cc1cc(CC(=O)O)c(C(C)(C)CC(=O)N(c2nn(CC(F)(F)F)c3c(-c4ccc(C#CC(C)(C)S(C)(=O)=O)nc4[C@H](Cc4cc(F)cc(F)c4)NC(=O)Cn4nc(C(F)(F)F)c5c4C(F)(F)[C@@H]4C[C@H]54)ccc(Cl)c23)S(C)(=O)=O)c(OP(=O)(O)O)c1 [Compound 1 maleate],about 2.5%
2,"Cc1cc(CC(=O)O)c(C(C)(C)CC(=O)N(c2nn(CC(F)(F)F)c3c(-c4ccc(C#CC(C)(C)S(C)(=O)=O)nc4[C@H](Cc4cc(F)cc(F)c4)NC(=O)Cn4nc(C(F)(F)F)c5c4C(F)(F)[C@@H]4C[C@H]54)ccc(Cl)c23)S(C)(=O)=O)c(OP(=O)(O)O)c1 [Compound 1, crystalline Form III]",about 1.6%
3,"Cc1cc(CC(=O)OC(C)(C)C)c(C(C)(C)CC(=O)N(c2nn(CC(F)(F)F)c3c(-c4ccc(C#CC(C)(C)S(C)(=O)=O)nc4[C@H](Cc4cc(F)cc(F)c4)NC(=O)Cn4nc(C(F)(F)F)c5c4C(F)(F)[C@@H]4C[C@H]54)ccc(Cl)c23)S(C)(=O)=O)c(OP(=O)(OC(C)(C)C)OC(C)(C)C)c1 [Compound 2, crystalline Form I]",about 2.7%
4,"Cc1cc(CC(=O)O)c(C(C)(C)CC(=O)N(c2nn(CC(F)(F)F)c3c(-c4ccc(C#CC(C)(C)S(C)(=O)=O)nc4[C@H](Cc4cc(F)cc(F)c4)NC(=O)Cn4nc(C(F)(F)F)c5c4C(F)(F)[C@@H]4C[C@H]54)ccc(Cl)c23)S(C)(=O)=O)c(OP(=O)(O)O)c1 [Compound 1, Material A]",about 4.6%
5,"Cc1cc(CC(=O)O)c(C(C)(C)CC(=O)N(c2nn(CC(F)(F)F)c3c(-c4ccc(C#CC(C)(C)S(C)(=O)=O)nc4[C@H](Cc4cc(F)cc(F)c4)NC(=O)Cn4nc(C(F)(F)F)c5c4C(F)(F)[C@@H]4C[C@H]54)ccc(Cl)c23)S(C)(=O)=O)c(OP(=O)(O)O)c1 [Compound 1, crystalline Form I]",about 4%
6,"Cc1cc(CC(=O)O)c(C(C)(C)CC(=O)N(c2nn(CC(F)(F)F)c3c(-c4ccc(C#CC(C)(C)S(C)(=O)=O)nc4[C@H](Cc4cc(F)cc(F)c4)NC(=O)Cn4nc(C(F)(F)F)c5c4C(F)(F)[C@@H]4C[C@H]54)ccc(Cl)c23)S(C)(=O)=O)c(OP(=O)(O)O)c1 [Compound 1, crystalline Form II]",about 1%
7,Cc1cc(CC(=O)O)c(C(C)(C)CC(=O)N(c2nn(CC(F)(F)F)c3c(-c4ccc(C#CC(C)(C)S(C)(=O)=O)nc4[C@H](Cc4cc(F)cc(F)c4)NC(=O)Cn4nc(C(F)(F)F)c5c4C(F)(F)[C@@H]4C[C@H]54)ccc(Cl)c23)S(C)(=O)=O)c(OP(=O)(O)O)c1 [Compound 1 succinate],about 1.7%
